# Measured values reported in patent publication US8044055B2, “2-phenyl-6-aminocarbonyl-pyrimidine derivatives and their use as P2Y12 receptor” (Actelion Pharmaceuticals Ltd., priority 2006, dated 2011).
# Counter-ions that a name gives are not always drawn.
# Target: T1, human P2Y12 receptor (Homo sapiens, UniProt Q9H244)
# T1 construct: expressed in transfected cells; host or cells: Chinese Hamster Ovary (CHO) cells
# Test: P2Y12 receptor binding assay
# Conditions: CHO cells with recombinant expression of the human P2Y12 receptor; tritium-labeled 2-methyl-S-ADP; 2 hours at room temperature
# Method: Chinese Hamster Ovary (CHO) cells with recombinant expression of the human P2Y12 receptor were cultured in 24 well cell-culture plates. Cells were washed three times with binding buffer (50 mM Tris pH 7.4, 100 mM NaCl, 1 mM EDTA, 0.5% BSA). The cells were then incubated with 0.5 ml per well binding buffer containing tritium-labeled 2-methyl-thio-adenosine 5′-diphosphate (2-methyl-S-ADP) (between 100'000 and 300'000 dpm per well) and various concentrations of test compounds. After incubation at room temperature for 2 hours, cells were washed three times with binding buffer. Then, cells were solubilized by addition of 0.5 ml solubilization buffer (SDS, NaOH, EDTA). The content of each well was then transferred into beta-counter vials and 2.0 ml of Ultima Gold Scintillation liquid was added.
# T1 sequence (Q9H244 whole entry): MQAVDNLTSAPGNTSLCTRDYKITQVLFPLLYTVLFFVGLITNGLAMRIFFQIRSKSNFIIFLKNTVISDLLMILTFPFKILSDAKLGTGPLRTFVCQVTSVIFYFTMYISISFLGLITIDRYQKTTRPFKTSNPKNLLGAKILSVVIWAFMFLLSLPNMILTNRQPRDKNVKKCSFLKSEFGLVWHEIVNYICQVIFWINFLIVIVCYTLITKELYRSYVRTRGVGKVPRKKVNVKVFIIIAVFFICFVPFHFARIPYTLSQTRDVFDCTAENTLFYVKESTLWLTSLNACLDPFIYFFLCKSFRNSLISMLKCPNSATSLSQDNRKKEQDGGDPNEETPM
row,SMILES,IC50 [nM]
1,"CCOC(=O)N1CCN(C(=O)[C@H](CCC(=O)O)NC(=O)c2cc(OCCOCCOC)nc(-c3ccccc3)n2)CC1 [Example 1, 4-[(S)-4-carboxy-2-({6-[2-(2-methoxy-ethoxy)-ethoxy]-2-phenyl-pyrimidine-4-carbonyl}-amino)-butyryl]-piperazine-1-carboxylic acid ethyl ester]",108
2,"CCCCOC(=O)N1CCN(C(=O)[C@H](CCC(=O)OC(C)(C)C)NC(=O)c2cc(OC3CCNCC3)nc(-c3ccccc3)n2)CC1 [Example 38, 4-((S)-4-tert-butoxycarbonyl-2-{[2-phenyl-6-(piperidin-4-yloxy)-pyrimidine-4-carbonyl]-amino}-butyryl)-piperazine-1-carboxylic acid butyl ester]",13000
3,"CCCCOC(=O)N1CCN(C(=O)[C@H](CCC(=O)OC(C)(C)C)NC(=O)c2cc(O[C@@H]3CCOC3)nc(-c3ccccc3)n2)CC1 [Example 36, 4-[(S)-4-tert-butoxycarbonyl-2-({2-phenyl-6-[(R)-(tetrahydro-furan-3-yl)oxy]-pyrimidine-4-carbonyl}-amino)-butyryl]-piperazine-1-carboxylic acid butyl ester]",448
4,"CCOC(=O)N1CCN(C(=O)[C@H](CCc2nnn[nH]2)NC(=O)c2cc(OC3CCOC3)nc(-c3ccccc3)n2)CC1 (stereo partly drawn) [Example 17, 4-[(S)-2-{[2-phenyl-6-(tetrahydro-furan-3-yloxy)-pyrimidine-4-carbonyl]-amino}-4-(1H-tetrazol-5-yl)-butyryl]-piperazine-1-carboxylic acid ethyl ester]",94

# Further lines, results first:
row,IC50 [nM],SMILES
1,238,"CCOC(=O)N1CCN(C(=O)[C@H](CCC(=O)O)NC(=O)c2cc(OC3CCCN(C)C3)nc(-c3ccccc3)n2)CC1 (stereo partly drawn) [Example 6, 4-((S)-4-carboxy-2-{[6-(1-methyl-piperidin-3-yloxy)-2-phenyl-pyrimidine-4-carbonyl]-amino}-butyryl)-piperazine-1-carboxylic acid ethyl ester trifluoroacetate salt]"
2,71,"CCCCOC(=O)N1CCN(C(=O)[C@H](CCC(=O)O)NC(=O)c2cc(OC3CCNCC3)nc(-c3ccccc3)n2)CC1 [Example 37, 4-((S)-4-carboxy-2-{[2-phenyl-6-(piperidin-4-yloxy)-pyrimidine-4-carbonyl]-amino}-butyryl)-piperazine-1-carboxylic acid butyl ester]"
3,126,"CCOC(=O)N1CCN(C(=O)[C@H](CCC(=O)O)NC(=O)c2cc(OC3CCOC3)nc(-c3ccccc3)n2)C(C)C1 (stereo partly drawn) [Example 10, ((S)-4-carboxy-2-{[2-phenyl-6-(tetrahydro-furan-3-yloxy)-pyrimidine-4-carbonyl]-amino}-butyryl)-3-methyl-piperazine-1-carboxylic acid ethyl ester]"
